Key:
Vtc4p = biological target: T1, Vtc4p (Saccharomyces cerevisiae, UniProt P47075); assay: polyP synthesis, urea PAGE with DAPI stain; type: biochemical; conditions: 10 mM ATP, 1 mM MnCl2, pH 8.3, room temperature overnight
T1 construct: gene VTC4; probably the cytoplasmic tunnel domain of earlier work

mouse ThTPase [1] = biological target: T2, mouse ThTPase (Mus musculus, UniProt Q8JZL3); assay: X-ray crystal structure of product complex (soak); type: binding; conditions: pH 9.0, 0.2 M MgCl2 in crystallization buffer
T2 construct: gene Thtpa; full-length, codon-optimized synthetic gene; pMH-HT, His6 tag cleaved by TEV as for AtTTM3; expressed in E. coli
T2 sequence (Q8JZL3 1-224): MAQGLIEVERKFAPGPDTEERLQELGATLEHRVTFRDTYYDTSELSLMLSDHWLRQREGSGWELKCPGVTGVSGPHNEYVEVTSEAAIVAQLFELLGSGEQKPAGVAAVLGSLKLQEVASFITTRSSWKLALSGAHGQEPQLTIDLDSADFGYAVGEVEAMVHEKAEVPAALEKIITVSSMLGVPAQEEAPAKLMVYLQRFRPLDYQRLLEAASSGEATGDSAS

mouse ThTPase [2] = biological target: T2, mouse ThTPase; assay: X-ray crystal structure of complex (soak); type: binding; conditions: 10 mM MgCl2; low pH where activity is minimal (text: pH 6; methods: buffer pH 6.8); tunnel active site
ygiF = biological target: T3, ygiF (Escherichia coli, UniProt P30871); assay: X-ray crystal structure of complex (soak); type: binding; conditions: MgCl2 (5a60) or MnCl2 (5a61), 5 mM; tunnel active site
T3 construct: full-length, tunnel domain plus CHAD domain; pMH-HT, His6 tag cleaved by TEV as for AtTTM3; expressed in E. coli
T3 sequence (P30871 whole entry, the tested form may be a part): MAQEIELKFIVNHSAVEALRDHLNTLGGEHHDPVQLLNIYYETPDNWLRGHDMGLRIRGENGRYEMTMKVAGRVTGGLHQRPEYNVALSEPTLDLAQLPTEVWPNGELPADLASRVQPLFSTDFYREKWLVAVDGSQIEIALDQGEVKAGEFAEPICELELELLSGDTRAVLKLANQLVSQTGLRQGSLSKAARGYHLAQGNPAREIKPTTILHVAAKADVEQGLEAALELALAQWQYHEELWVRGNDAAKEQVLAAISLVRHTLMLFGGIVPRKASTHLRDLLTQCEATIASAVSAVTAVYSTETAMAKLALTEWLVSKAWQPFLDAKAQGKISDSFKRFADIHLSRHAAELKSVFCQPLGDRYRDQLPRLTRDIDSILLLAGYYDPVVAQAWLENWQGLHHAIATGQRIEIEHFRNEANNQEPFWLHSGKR

T1 sequence (P47075 189-480 limits assumed): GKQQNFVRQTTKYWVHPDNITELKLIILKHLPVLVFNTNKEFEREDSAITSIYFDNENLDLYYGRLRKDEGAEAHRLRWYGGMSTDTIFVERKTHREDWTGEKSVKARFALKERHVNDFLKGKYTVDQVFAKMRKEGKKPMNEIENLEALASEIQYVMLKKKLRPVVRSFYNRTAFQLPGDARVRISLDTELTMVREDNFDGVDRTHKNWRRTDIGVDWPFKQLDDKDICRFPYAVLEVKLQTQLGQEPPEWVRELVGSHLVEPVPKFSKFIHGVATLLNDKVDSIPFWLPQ

`Nc1ncnc2c1ncn2[C@@H]1O[C@H](COP(=O)(O)OP(=O)(O)OP(=O)(O)O)[C@@H](O)[C@H]1O` [ATP] was tested, and the “polyP synthesis, urea PAGE with DAPI stain” value (Vtc4p) was “only Vtc4p can generate inorganic polyphosphate from ATP”.

For `Cc1ncc(C[n+]2csc(CCOP(=O)(O)OP(=O)(O)O)c2C)c(N)n1` [ThDP], the “X-ray crystal structure of product complex (soak)” value (mouse ThTPase [1]; tunnel active site, Pi also bound) was “with a ThDP molecule and an orthophosphate located in the tunnel center”.

With `O=P(O)(O)O` [orthophosphate] the “X-ray crystal structure of product complex (soak)” value (mouse ThTPase [1]; bound by Arg-125 near metal site 2, with ThDP) was “with a ThDP molecule and an orthophosphate located in the tunnel center”.

`Cc1ncc(C[n+]2csc(CCOP(=O)(O)OP(=O)(O)OP(=O)(O)O)c2C)c(N)n1` [thiamine triphosphate] was tested, and the “X-ray crystal structure of complex (soak)” value (mouse ThTPase [2]) was “we found an intact ThTP molecule bound in the tunnel center of ThTPase”.

`O=P(O)(O)OP(=O)(O)OP(=O)(O)O` [tripolyphosphate] was tested, and the “X-ray crystal structure of complex (soak)” value (ygiF) was “solved structures of ygiF in complex with PPPi and in the presence of either MgCl2”.

Source: PMC4641920, “Structural Determinants for Substrate Binding and Catalysis in Triphosphate Tunnel Metalloenzymes” (The Journal of Biological Chemistry, 2015)
